According to patent publication US6375926B1, “Labelled elastase inhibitors” (Amersham International PLC, priority 1996, dated 2002):

Legend:
[1] = system: E. coli infected rats (experimental abscess); experiment: In vivo biodistribution in rats bearing experimental abscesses, direct intravenous injection; design: species or system male Wistar rats; conditions: directly injected i.v., 24 hrs post injection
Method: The model: into the right gracilis (thigh) muscle of male Wistar rats (250-325 g) were injected 1 ml/kg of an E. coli suspension containing >> 5×10^8/ml organisms.
Validation: the model was validated for use in the development of diagnostic imaging agents of infection/inflammation by the intravenous injection of ^99mTc-HMPAO ex-vivo labelled human wbc or ^67Ga-citrate when the abscesses were 24 hours old. Animals were dissected between 4 and 24 hours after injection. ^99mTc-labelled red blood cells were used as a negative control.
The animals were sacrificed at either 4 or 24 hours post injection and relevant tissues dissected.

[2] = system: E. coli infected rats (experimental abscess); experiment: as above; design: species or system male Wistar rats; conditions: 48 hrs

`O=C([O-])CC(O)(CC(=O)[O-])C(=O)[O-].[67Ga+3]` [^67Ga-citrate, ^67Ga citrate, reference compound] was tested, and the “Relative conc. In infected area” value ([1]; % injected dose in a % body weight) was 0.9, the Infected/normal ([1]; ratio of % id/g infected area to contralateral thigh) was 2.2 and the Infected/blood ([1]; ratio of %/g infected area to blood) was 3.9. For the same compound, the Infected/blood [2] was 9.7, the Infected/normal [2] was 3.9 and the “Relative conc. In infected area” value [2] was 1.1.
